From ChEMBL document CHEMBL1137047, “Induction of G2/M cell cycle arrest and apoptosis by a benz[f]indole-4,9-dione analog in cultured human lung (A549) cancer cells” (Bioorg Med Chem Lett, 2004)

How the values were obtained:
Format in all cases: functional, cell-based
Conditions in all cases: Homo sapiens
A549 = assay: Inhibitory activity against growth of cultured A-549 cell line
Col2 = assay: inhibitory activity against growth of cultured Col2 cell line
SNU-638 = assay: inhibitory activity against growth of cultured SNU-638 cell line

- IC50 (A549): 630 nM
- IC50 (SNU-638): 1680 nM
Structure (SMILES): CCOC(=O)c1c2c(n(C)c1N)C(=O)c1ccccc1C2=O
- IC50 (Col2): 340 nM
